Experimental data: paper PMC9571290, “Preliminary Structure–Activity Relationship Study of the MMV Pathogen Box Compound MMV675968 (2,4-Diaminoquinazoline) Unveils Novel Inhibitors of Trypanosoma brucei brucei” (Molecules, 2022)

Key:
trypanosomes = test: intracellular ROS production (DCFDA); assay type: cell-based, Trypanosoma brucei brucei; settings: 120 min; versus untreated parasites
Protocol: The production of ROS was detected using a 2′,7′–dichlorofluorescein diacetate (DCFDA) probe (Sigma–Aldrich) as described by Rea et al.. […] DCFDA (100 µL, 5 µM) was then added to the parasites, and incubation was pursued for 15 min at 37 °C. Hydrogen peroxide (H2O2 0.1% v/v) was used as a positive control for maximal ROS production, and wells with untreated parasites were included as a negative control. Of note, DCFDA is cleaved by ROS to produce fluorescent 2′,7′-dichlorofluorescein (DCF), of which the fluorescence intensity was measured at λex = 485 nm and λem = 520 nm. Data obtained from duplicate readouts were used to determine the ROS production percentage relative to the positive control (100% Production). % ROS production = (OD Test/OD control(H2O2)) × 100

[1] = ferric ion reducing antioxidant power (FRAP); settings: Fe^3+-reducing activity
Protocol: Iron is one of the vital elements for all parasites, including trypanosomes, as it plays a key role in pathogenesis and the host immune response. Therefore, iron bioavailability reducing agents to the parasite could be potential candidates for drug development against trypanosomiasis. To this end, we determined the capacity of the test compounds to reduce iron from ferric to ferrous status using the method described by Benzie et al.. Briefly, 25 µL of each compound (7 and 10) was added to 25 µL of a solution of Fe^3+ prepared at 1.2 mg/mL in distilled water in a 96-well microplate. The plate was incubated for 15 min at room temperature in darkness, after which 50 µL of ortho-phenanthroline (0.2% in methanol) was added to achieve final compound concentrations ranging from 400 µM to 0.19 µM. Plates were reincubated for 15 min, and the absorbance was measured at 510 nm. Ascorbic acid was used as a positive control and tested at concentrations ranging from 100 to 0.048 μg/mL. The median reducing concentration (RC50) values of compounds were determined through sigmoidal concentration–response curves using GraphPad Prism version 8.0 software.

Row | SMILES | change in ROS production (trypanosomes) | median reducing concentration (RC50) [1] [µM]
1 | COc1ccccc1NCc1ccc2nc(N)nc(N)c2c1 [Analog 7, 6-(((2-methoxyphenyl)amino)methyl)quinazoline-2,4-diamine] | no significant change | 96.37
2 | Nc1nc(N)c2cc(CNc3cc(Cl)ccc3Cl)ccc2n1 [Analog 10, 6-(((2,5-dichlorophenyl)amino)methyl)quinazoline-2,4-diamine] | no significant change | > 400
